Results taken from patent US7253295B2, “Chloride channel opener” (Sucampo AG, priority 2001, dated 2007).
“And” between values parts separate entries of the source, which are not always exact repeats. Equal entries are not always repeated.

How the values were obtained:
[1] = molecular target: T1, recombinant hClC-2 chloride channel (Homo sapiens, UniProt P51788); assay: Whole cell patch clamp, HEK cells transfected with hClC-2 (Test Example 1); type: cell-based; settings: for Effect on Cl currents in HEK cells transfected with hClC-2 (in words): 1 μM; for Cl channel activity: 1 μM in 1% DMSO, HEK cells transfected with hClC-2
T1 construct: His; T7; expressed in transfected cells; host or cells: HEK-293 (ATCC), pcDNA3.1, G-418 selected
T1 sequence (P51788 1-898): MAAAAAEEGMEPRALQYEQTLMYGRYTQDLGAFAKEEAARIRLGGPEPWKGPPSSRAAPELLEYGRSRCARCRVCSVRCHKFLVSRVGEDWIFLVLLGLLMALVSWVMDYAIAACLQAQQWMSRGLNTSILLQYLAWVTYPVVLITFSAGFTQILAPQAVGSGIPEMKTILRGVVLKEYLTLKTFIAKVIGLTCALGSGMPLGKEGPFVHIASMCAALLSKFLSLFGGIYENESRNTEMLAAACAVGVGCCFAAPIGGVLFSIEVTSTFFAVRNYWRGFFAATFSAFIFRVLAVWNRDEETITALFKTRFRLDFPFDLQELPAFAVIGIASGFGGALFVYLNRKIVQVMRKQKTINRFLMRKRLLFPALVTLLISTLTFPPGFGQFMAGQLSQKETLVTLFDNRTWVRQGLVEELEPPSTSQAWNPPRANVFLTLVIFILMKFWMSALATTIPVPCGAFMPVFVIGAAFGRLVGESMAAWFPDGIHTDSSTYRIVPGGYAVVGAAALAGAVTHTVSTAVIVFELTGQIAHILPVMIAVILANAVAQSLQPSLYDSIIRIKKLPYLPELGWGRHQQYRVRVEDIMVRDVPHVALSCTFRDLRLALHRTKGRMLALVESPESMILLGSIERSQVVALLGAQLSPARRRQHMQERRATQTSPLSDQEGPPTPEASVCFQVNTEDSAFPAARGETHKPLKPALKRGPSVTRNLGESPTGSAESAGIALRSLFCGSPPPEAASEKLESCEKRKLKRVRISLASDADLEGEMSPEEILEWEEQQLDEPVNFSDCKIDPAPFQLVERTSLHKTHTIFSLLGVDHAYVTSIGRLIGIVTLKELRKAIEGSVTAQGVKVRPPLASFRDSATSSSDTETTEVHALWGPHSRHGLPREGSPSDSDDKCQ
Excerpt: Whole cell patch clamp method was used to assess the effect of compound 1 (13,14-dihydro-15-keto-16,16-difluoro-PGE1) and compound 2 (13,14-dihydro-15-keto-16,16-difluoro-18 (S)-methyl-PGE1) on recombinant hClC-2 chloride channel. In this example, effects of the respective compounds on Human Epithelial Kidney (HEK) cells transfected with human ClC-2 (hClC-2) were examined, and the results were compared with those on non-transfected HEK cells.
ClC-2 transfected human epithelial kidney (HEK) cells were prepared and used. HEK-293 cells obtained from American Type Culture Collection (ATCC; Manassas, Va.) were transfected with His- and T7-tagged human ClC-2 cDNA in the mammalian expression vector pcDNA3.1 (GIBCO/Invitrogen) using Lipofectamine (GIBCO/Invitrogen) for 5 h at 37° C. in serum-free medium. Cells were then resuspended in the serum-containing medium and cultured in the presence of 300 μg/ml G-418 (GIBCO/Invitrogen). The surviving cells were then expanded, tested to confirm expression of Cl- current and ClC-2 mRNA, and the cells expressing ClC-2 mRNA were frozen to store. Upon studies, the stored cells were thawed and maintained at 37° C. in 5%/95% CO2/O2 in MEM (GIBCO/Invitrogen) supplemented with 5% inactivated horse serum, 0.1 mM nonessential amino acids, 2 mM L-glutamine, 1 mM sodium pyruvate, 100 units/ml penicillin, and 100 μg/ml streptomycin sulfate.
In the whole cell patch clamp measurements, currents were elicited by voltage clamp pulses (1500 ms duration) between +40 mV and −140 mV, in 20 mV increments, from the beginning holding potential of −30 mV. Currents were measured 50-100 ms after start of the pulse. The external solution was normal Tyrode solution containing 135 mM NaCl, 1.8 mM CaCl2, 1 mM MgCl2, 5.4 mM KCl, 10 mM glucose, and 10 mM HEPES (pH 7.35). The pipette solution was 130 mM CsCl, 1 mM MgCl2, 5 mM EGTA, and 10 mM HEPES (pH 7.35); also present in the pipette was 1 mM ATP—Mg^2+ (pH 7.4).
Pipettes were prepared from borosilicate glass and pulled by a two stage Narashige puller to give 1-1.5 MΩ resistance. Data were acquired with Axopatch CV-4 headstage with Digidata 1200 digitizer and Axopatch 1D amplifier. Data were analyzed using pClamp 6.04 (Axon Instruments, Foster City, Calif.), Lotus 123 (IBM) and Origin (Microcal) software.
Compound 1 and compound 2 were used at a final concentration of 1 μM in 1% DMSO.

[2] = test system: 16HBE14o- cells; assay: Short-circuit current in 16HBE14o- cells (Test Example 2); type: cell-based, Human; settings: 1 μM, 1% DMSO
Protocol: 16HBE14o- cells, a Human airway cell line derived from a healthy individual, which contain ClC-2 and the Cystic Fibrosis Transmembrane Regulator, Cl channel (CFTR); and CFBE41o- cells, a Human airway cell line derived from cystic fibrosis patients, which contain functional form of ClC-2 and defective form of CFTR (ΔF508 CFTR) were used. Both cells were cultured in MEM supplemented with 10% FBS (Hyclone), […] 1-glutamine and penicillin/streptomycin in flasks coated with fibronectin/collagen/BSA. When desired, the cells were plated on 0.3 cm^2 collagen-coated permeable filters (Biocoat). After 24 hrs, the apical medium was removed so that the cells were grown in air-water interface. While they were grown in air-water interface, the basolateral side of the cells was fed with the medium and the medium was changed every other day. The cells were allowed to grow to confluence.
Short-circuit current measurements were used to evaluate Cl transport in polarized, confluent cultures of the cells grown in air-water interface. A plexiglass chamber for short-circuit current measurements in confluent cell monolayers grown on the 0.3 cm^2 permeable support filters was used (World Precision Instruments, Sarasota, Fla.). Electrical measurements were made with a 7402C voltage clamp device (Bioengineering Department, Iowa University). The temperature was held constant at 37° C. by circulating heated water through the water jacket of the chamber. The output of the amplifier was plotted on an analog chart recorder. Changes in short-circuit current (Δlsc) after addition of test compounds were normalized to filter area (0.3 cm^2) and reported as ΔIsc/cm^2.
Short-circuit current measurements in the 16HBE14o- and CFBE41o- cells were carried out as described by Lofling et al. (Am J Physiol, 277(4 Pt 1):L700-8, 1999, the cited reference is herein incorporated by reference). […] Both solutions were bubbled with CO2/O2 (5%/95%), which also served to help mix the solutions. In all cases, the basolateral membrane was permeabilized with 200 μg/ml nystatin. […]

[3] = molecular target: T2, recombinant human ClC-2 Chloride Channels (Homo sapiens, UniProt P51788); assay: Whole cell patch clamp, ClC-2 transfected HEK cells, current increase (Test Example 4); type: cell-based; settings: 100 nM, change from control
T2 construct: His; T7; expressed in transfected cells; host or cells: HEK-293 (ATCC), pcDNA3.1, G-418 selected
T2 sequence (P51788 1-898): T1 sequence (P51788 1-898)
Protocol: According to the same manner as described in Example 1, whole cell patch clamp measurements were carried out.
Test compounds were used at a final concentration of 100 nM.

Row | Effect on Cl currents in HEK cells transfected with hClC-2 (in words) [1] | Cl channel activity [1] | Activation of ClC-2 channels ΔpA/pF [3] | SMILES | Short-Circuit Current (change) [2] | Short-Circuit Current (change) ([2]; listed as compound 2)
1 | activated | 0.558 ± 0.100 nS/pF | 22.6 pA/pF | CC[C@H](C)CC(F)(F)C(=O)CC[C@H]1[C@H](O)CC(=O)[C@@H]1CCCCCCC(=O)O [Compound 2, 13,14-dihydro-15-keto-16,16-difluoro-18(S)-Methyl-PGE1] | 11.6±1.3 μA/cm^2 | 11.6 ± 1.3 μA/cm^2
2 | activated | 1.820 ± 0.114 nS/pF | 39.8 pA/pF | CCCCC(F)(F)[C@@]1(O)CC[C@H]2[C@@H](CC(=O)[C@@H]2CCCCCCC(=O)O)O1 [Compound 1, (−)-7-[(2R,4aR,5R,7aR)-2-(1,1-difluoropentyl)-2-hydroxy-6-oxoperhydrocyclopenta[b]pyran-5-yl]heptanoic acid] | 9.56±0.095 μA/cm^2 and 9.56 ± 0.95 μA/cm^2 | –
